Assay results taken from patent US9635854B2, “Controlling red rice with mesotrione” (FMC Corporation, priority 2014, dated 2017).
Where two headings read alike, the source gives them in different places.

How the values were obtained:
red rice (Oryza sativa) = experiment: Pre-emergent evaluation on flooded rice, red rice control; format: in vivo; settings: PRE, direct-seeded flooded rice
Method: (§1) Rice (Oryza sativa) crop varieties (‘Cybonee’, ‘Jupiter’, and ‘Taggart’) and red rice (Oryza sativa) were planted in 6 inch plastic pots containing sterile top soil. Eight to ten seeds of each species were seeded at 12 o'clock, 3 o'clock, 6 o'clock or 9 o'clock around the pot. The pots were watered after planting. […] The test solutions were applied using a compressed air track spray chamber at 30 gallons per acre using a Teejet 8001E nozzle at 40 PSI, three replicates per test rate. After treatment, the pots were watered lightly and transferred to trays in a greenhouse. After the plants were two inches in height the trays were flooded with water and maintained as such for 14 days. The trays were emptied of water and the pots were maintained by regular watering for 4 more days. At 14, 21 and 28 days after treatment (DAT) the plants were evaluated versus untreated control pots containing the same rice and weeds using a scale of 0% (no control) to 100% (complete plant death).

rice (Taggart variety) = experiment: Pre-emergent weed control in direct-seeded flooded rice (Example 2), rice injury; format: in vivo; settings: for % Rice Injury Rice Taggert: pre-emergent, flooded, 28 Days After Treatment
Source text: (§2) Seeds of crops, rice (Taggart and Wells varieties) and weeds, yellow nutsedge (Cyperus esculentus), barnyardgrass (Echinochloa crus-galli), large crabgrass (Digitaria sanguinalis), hemp sesbania (Sesbania herbacea), Benghal dayflower (Commelina benghalensis), red rice (Oryza sativa) and broadleaf signalgrass (Urochloa platyphylla) were planted in two gallon pots containing top soil. Each pot was watered well before the application of mesotrione (Callisto® Herbicide from Syngenta Crop Protection).

rice (Wells variety) = experiment: as above; format: in vivo; settings: for % Rice Injury Rice Wells: pre-emergent, flooded, 28 Days After Treatment
Source text: as §2

[1] = tested on: Rice (Oryza sativa) 'Jupiter'; settings: PRE, direct-seeded flooded rice
Method: as §1

## CS(=O)(=O)c1ccc(C(=O)C2C(=O)CCCC2=O)c([N+](=O)[O-])c1 [Mesotrione, mesotrione]
Red rice (Oryza sativa); 14 DAT, 12.5 g ai/ha
  Percent red rice control: 68 BC %
Red rice (Oryza sativa); 14 DAT, 25 g ai/ha
  Percent red rice control: 70 ABC %
Red rice (Oryza sativa); 14 DAT, 37.5 g ai/ha
  Percent red rice control: 78 AB %
Red rice (Oryza sativa); 14 DAT, 50 g ai/ha
  Percent red rice control: 81 AB %
Red rice (Oryza sativa); 14 DAT, 62.5 g ai/ha
  Percent red rice control: 81 AB %
Red rice (Oryza sativa); 14 DAT, 75 g ai/ha
  Percent red rice control: 84 A %
Red rice (Oryza sativa); 14 DAT, 87.5 g ai/ha
  Percent red rice control: 80 AB %
Red rice (Oryza sativa); 14 DAT, 100 g ai/ha
  Percent red rice control: 84 A %
Red rice (Oryza sativa); 21 DAT, 12.5 g ai/ha
  Percent red rice control: 91 A %
Red rice (Oryza sativa); 21 DAT, 25 g ai/ha
  Percent red rice control: 97 A %
Red rice (Oryza sativa); 21 DAT, 37.5 g ai/ha
  Percent red rice control: 98 A %
Red rice (Oryza sativa); 21 DAT, 50 g ai/ha
  Percent red rice control: 97 A %
Red rice (Oryza sativa); 21 DAT, 62.5 g ai/ha
  Percent red rice control: 97 A %
Red rice (Oryza sativa); 21 DAT, 75 g ai/ha
  Percent red rice control: 98 A %
Red rice (Oryza sativa); 21 DAT, 87.5 g ai/ha
  Percent red rice control: 98 A %
Red rice (Oryza sativa); 21 DAT, 100 g ai/ha
  Percent red rice control: 98 A %
Red rice (Oryza sativa); 28 DAT, 12.5 g ai/ha
  Percent red rice control: 93 A %
Red rice (Oryza sativa); 28 DAT, 25 g ai/ha
  Percent red rice control: 97 A %
Red rice (Oryza sativa); 28 DAT, 37.5 g ai/ha
  Percent red rice control: 100 A %
Red rice (Oryza sativa); 28 DAT, 50 g ai/ha
  Percent red rice control: 99 A %
Red rice (Oryza sativa); 28 DAT, 62.5 g ai/ha
  Percent red rice control: 99 A %
Red rice (Oryza sativa); 28 DAT, 75 g ai/ha
  Percent red rice control: 100 A %
Red rice (Oryza sativa); 28 DAT, 87.5 g ai/ha
  Percent red rice control: 98 A %
Red rice (Oryza sativa); 28 DAT, 100 g ai/ha
  Percent red rice control: 100 A %
Rice (Taggart variety); 6 g ai/ha
  % Rice Injury Rice Taggert: 0%
Rice (Taggart variety); 12 g ai/ha
  % Rice Injury Rice Taggert: 2%
Rice (Taggart variety); 25 g ai/ha
  % Rice Injury Rice Taggert: 4%
Rice (Taggart variety); 50 g ai/ha
  % Rice Injury Rice Taggert: 8%
Rice (Taggart variety); 100 g ai/ha
  % Rice Injury Rice Taggert: 10%
Rice (Taggart variety); 200 g ai/ha
  % Rice Injury Rice Taggert: 53%
Rice (Taggart variety); summary of Table 7 data
  safety on white rice, Taggart: safe
Rice (Wells variety); 6 g ai/ha
  % Rice Injury Rice Wells: 0%
Rice (Wells variety); 12 g ai/ha
  % Rice Injury Rice Wells: 2%
Rice (Wells variety); 25 g ai/ha
  % Rice Injury Rice Wells: 4%
Rice (Wells variety); 50 g ai/ha
  % Rice Injury Rice Wells: 5%
Rice (Wells variety); 100 g ai/ha
  % Rice Injury Rice Wells: 12%
Rice (Wells variety); 200 g ai/ha
  % Rice Injury Rice Wells: 47%
Rice (Wells variety); summary of Table 7 data
  safety on white rice, Wells: safe
[1]; 14 DAT, 12.5 g ai/ha
  Percent rice injury Jupiter: 2 B %
[1]; 14 DAT, 25 g ai/ha
  Percent rice injury Jupiter: 2 B %
[1]; 14 DAT, 37.5 g ai/ha
  Percent rice injury Jupiter: 4 B %
[1]; 14 DAT, 50 g ai/ha
  Percent rice injury Jupiter: 2 B %
[1]; 14 DAT, 62.5 g ai/ha
  Percent rice injury Jupiter: 5 B %
[1]; 14 DAT, 75 g ai/ha
  Percent rice injury Jupiter: 6 B %
[1]; 14 DAT, 87.5 g ai/ha
  Percent rice injury Jupiter: 12 B %
[1]; 14 DAT, 100 g ai/ha
  Percent rice injury Jupiter: 11 B %
[1]; 21 DAT, 12.5 g ai/ha
  Percent rice injury Jupiter: 0 D %
[1]; 21 DAT, 25 g ai/ha
  Percent rice injury Jupiter: 0 D %
[1]; 21 DAT, 37.5 g ai/ha
  Percent rice injury Jupiter: 1 CD %
[1]; 21 DAT, 50 g ai/ha
  Percent rice injury Jupiter: 3 CD %
[1]; 21 DAT, 62.5 g ai/ha
  Percent rice injury Jupiter: 5 CD %
[1]; 21 DAT, 75 g ai/ha
  Percent rice injury Jupiter: 13 BCD %
[1]; 21 DAT, 87.5 g ai/ha
  Percent rice injury Jupiter: 22 BC %
[1]; 21 DAT, 100 g ai/ha
  Percent rice injury Jupiter: 28 B %
[1]; 28 DAT, 12.5 g ai/ha
  Percent rice injury Jupiter: 2 D %
[1]; 28 DAT, 25 g ai/ha
  Percent rice injury Jupiter: 2 D %
[1]; 28 DAT, 37.5 g ai/ha
  Percent rice injury Jupiter: 4 D %
[1]; 28 DAT, 50 g ai/ha
  Percent rice injury Jupiter: 5 D %
[1]; 28 DAT, 62.5 g ai/ha
  Percent rice injury Jupiter: 8 CD %
[1]; 28 DAT, 75 g ai/ha
  Percent rice injury Jupiter: 20 BCD %
[1]; 28 DAT, 87.5 g ai/ha
  Percent rice injury Jupiter: 44 B %
